Source: patent US20060270694A1, “JAK kinase inhibitors and their uses” (Rigel Pharmaceuticals, Inc., priority 2005, published 2006)

Test system: JAK kinase (JAK1 and JAK3)
Experiment: IL-4 activation assay: CD23 upregulation in IL-4 stimulated Ramos B-cells, FACS
Assay type: cell-based, human
Details: TABLE 2; IC50 CHMC degranulation (tryptase) / IC50 IL-4 Ramos CD23
Protocol: The selectivity of the compounds illustrated in TABLES 1 and 2 for JAK kinases as compared to Syk kinase was confirmed in cellular assays designed to test for JAK and Syk inhibition. Briefly, JAK inhibition was tested in human Ramos B-cells activated with IL-4. Twenty to 24 hours post stimulation, the cells are stained for upregulation of CD23 and analyzed by FACS. Stimulation of the B-cells with IL-4 leads to the activation of the JAK/STAT pathway through phosphorylation of the JAK kinase JAK1 and JAK3, which in turn phosphorylate and activate transcription of factor […].
For the assay, human Ramos B-cells (ATCC, Catalog No. CRL-1596) are cultured in RPMI 1640 medium (Cellgro, Catalog No. 10-040-CM) containing 10% fetal bovine serum (JRH, Catalog No. 12106-500M) according to the propagation protocol supplied with the cells, and maintained at a density of approximately 3.5×10^5 cells/ml. The day before the assay, the cells are diluted to 3.5×10^5 cells/ml to insure they are in the logorithmic growth phase. The cells are spun down, and suspended in RPMI 1640 medium containing 5% fetal bovine serum to a density of 3.5×10^4 cells/ml and aliquots dispensed into a 96-well tissue culture plate. Cells are incubated with test compound (dissolved in DMSO) or DMSO (control) for 1 hr at 37° C. and then stimulated with IL-4 (Pepotech, Catalog No. 200-04) for 20-24 hours (final concentration is 50 Units/ml). Cells are then spun down, stained with anti-CD23-PE antibody (BD Pharmigen, Catalog No.555711) and analyzed by FACS.

Row | SMILES | IC50 Ratio (Syk/JAK)
1 | CNC(=O)COc1cccc(Nc2ncc(F)c(Nc3cccc(OC(=O)N(C(=O)NC(C)C)C(C)C)c3)n2)c1 [Cmpd 71] | 15
2 | CN1CCN(c2ccc(Nc3ncc(F)c(NC4CCCC4)n3)cc2Cl)CC1 [Cmpd 72] | 14
3 | O=C(Nc1ccc(Nc2ncc(F)c(NC3CCCCC3)n2)cc1)c1ccccc1 [Cmpd 74] | 14
4 | COc1ccc(Nc2ncc(F)c(Nc3ccc4c(c3)NC(=O)CO4)n2)cc1Cl [Cmpd 75] | 14
5 | Cc1noc(COc2ccc(Nc3nc(Nc4ccc(C(N)=O)c(O)c4)ncc3F)cc2)n1 [Cmpd 78] | 13
6 | O=C1Nc2cc(Nc3nc(Nc4ccc(-c5cnco5)cc4)ncc3F)ccc2OC1CCO (stereo not shown) [Cmpd 79] | 12
7 | COc1ccc(Nc2nc(Nc3cc(Cl)c(O)c(Cl)c3)ncc2F)cc1Cl [Cmpd 80] | 11
8 | CNC(=N)COc1ccc(Nc2nc(Nc3ccc4c(c3)OCCO4)ncc2F)cc1 [Cmpd 81] | 11
9 | Cc1noc(COc2ccc(Nc3nc(Nc4ccc(C(N)=O)cc4)ncc3F)cc2)n1 [Cmpd 82] | 10
10 | CN1CCN(c2ccc(Nc3ncc(F)c(NC4CCCC4C(N)=O)n3)cc2Cl)CC1 (stereo not shown) [Cmpd 87] | 10

Further lines, results first:

Row | IC50 Ratio (Syk/JAK) | SMILES
11 | 14 | COC(=O)CNC(=O)c1ccc(Nc2ncc(F)c(Nc3ccc(C(N)=O)cc3)n2)cc1 [Cmpd 73]
12 | 14 | COc1cc(Nc2nc(Nc3ccc(CN)cc3)ncc2F)cc(OC)c1 [Cmpd 76]
13 | 13 | Cc1cc(Nc2ncc(F)c(NC3CCCC3)n2)cnc1N1CCN(C)CC1 [Cmpd 77]
14 | 10 | COc1ccc(Nc2nc(Nc3ccc(C(N)=O)c(Cl)c3)ncc2F)cc1Cl [Cmpd 83]
15 | 10 | CNC(=O)Cn1ncc2ccc(Nc3nc(Nc4ccc5c(c4)OCCO5)ncc3F)cc21 [Cmpd 84]
16 | 10 | CNS(=O)(=O)c1ccc(Nc2ncc(F)c(Nc3ccc(OC)c(OC)c3)n2)cc1OC [Cmpd 85]
17 | 10 | CNC(=O)COc1cccc(Nc2ncc(F)c(Nc3ccc4c(c3)C(N(C)C(=O)OC(C)(C)C)CCO4)n2)c1 (stereo not shown) [Cmpd 86]
18 | 10 | COC(=O)CNC(=O)c1ccc(Nc2nc(Nc3cccc(O)c3)ncc2F)cc1 [Cmpd 88]
19 | 10 | Cc1cc(Nc2nc(Nc3ccc(C(N)=O)c(Cl)c3)ncc2F)ccc1N1CCN(C)CC1 [Cmpd 89]
